# Experimental data taken from patent US10493070B2 (priority 2016, dated 2019).
# Test system: recombinant NL4-3 virus (NLRluc, Renilla luciferase in nef, Gag P373S)
# Assay: HIV cell culture assay (Renilla luciferase reporter virus in MT-2 cells)
# Assay type: cell-based
# Settings: Renilla, NL43, read-out: 10% FBS EC50, 10% FBS, class symbols A/B/C
# Description: MT-2 cells and 293T cells were obtained from the NIH AIDS Research and Reference Reagent Program. MT-2 cells were propagated in RPMI 1640 media supplemented with 10% heat inactivated fetal bovine serum, […]. The 293T cells were propagated in DMEM media supplemented with 10% heat inactivated fetal bovine serum (FBS), 100 units/ml penicillin G and 100 μg/ml streptomycin. The proviral DNA clone of NL4-3 was obtained from the NIH AIDS Research and Reference Reagent Program. A recombinant NL4-3 virus, in which a section of the nef gene from NL4-3 was replaced with the Renilla luciferase gene, was used as a reference virus. In addition, residue Gag P373 was converted to P373S. Briefly, the recombinant virus was prepared by transfection of the altered proviral clone of NL4-3. Transfections were performed in 293T cells using LipofectAMINE PLUS from Invitrogen (Carlsbad, Calif.), according to manufacturer's instruction. The virus was titered in MT-2 cells using luciferase enzyme activity as a marker. Luciferase was quantitated using the Dual Luciferase kit from Promega (Madison, Wis.), with modifications to the manufacturer's protocol. The diluted Passive Lysis solution was pre-mixed with the re-suspended Luciferase Assay Reagent and the re-suspended Stop & Glo Substrate (2:1:1 ratio). Fifty (50) μL of the mixture was added to each aspirated well on assay plates and luciferase activity was measured immediately on a Wallac TriLux (Perkin-Elmer). Antiviral activities of inhibitors toward the recombinant virus were quantified by measuring luciferase activity in cells infected for 4-5 days with NLRluc recombinants in the presence serial dilutions of the inhibitor. Table 16 is the key for the data in Table 17.
row,Structure (SMILES),EC50 [µM]
1,"CN1CCC2C(C)(C)[C@H](c3ccc(C(=O)O)cc3)CC[C@]2(C)C1 (single isomer, unassigned) [Example 90]",> 3
2,"CN1CCC2C(C)(C)[C@@H](c3ccc(C(=O)O)cc3)CC[C@]2(C)C1 (single isomer, unassigned) [Example 91]",> 3
3,"CC1(C)C(c2ccc(C(=O)O)cc2)=CC[C@]2(C)CN(C(=O)c3ccccc3)CC=C12 [Example 1, (S)-4-(2-benzoyl-5,5,8a-trimethyl-1,2,3,5,8,8a-hexahydroisoquinolin-6-yl)benzoic acid]",> 3
4,CC1(C)C(c2ccc(C(=O)O)cc2)=CC[C@]2(C)CN(C(=O)c3cccc(F)c3)CC=C12 [Example 2],> 3
5,CC1(C)C(c2ccc(C(=O)O)cc2)=CC[C@]2(C)CN(C(=O)c3ccc(F)cc3)CC=C12 [Example 3],> 3
6,CC1(C)C(c2ccc(C(=O)O)cc2)=CC[C@]2(C)CN(C(=O)c3cccc(F)c3F)CC=C12 [Example 4],> 3
7,CC1(C)C(c2ccc(C(=O)O)cc2)=CC[C@]2(C)CN(C(=O)c3ccc(F)cc3F)CC=C12 [Example 5],> 3
8,CC1(C)C(c2ccc(C(=O)O)cc2)=CC[C@]2(C)CN(C(=O)c3cc(F)ccc3F)CC=C12 [Example 6],> 3
9,CC1(C)C(c2ccc(C(=O)O)cc2)=CC[C@]2(C)CN(C(=O)c3ccc(F)c(F)c3)CC=C12 [Example 7],> 3
10,CC1(C)C(c2ccc(C(=O)O)cc2)=CC[C@]2(C)CN(C(=O)c3cc(F)cc(F)c3)CC=C12 [Example 8],> 3
11,CC1(C)C(c2ccc(C(=O)O)cc2)=CC[C@]2(C)CN(C(=O)C(=O)N3CC=C4C(C)(C)C(c5ccc(C(=O)O)cc5)=CC[C@]4(C)C3)CC=C12 [Example 9],> 3
12,CC1(C)C(c2ccc(C(=O)O)cc2)=CC[C@]2(C)CN(C(=O)C(=O)O)CC=C12 [Example 10],> 3
13,CC1(C)C(c2ccc(C(=O)O)cc2)=CC[C@]2(C)CN(C(=O)c3cccc(C(=O)O)c3)CC=C12 [Example 12],> 3
14,CC1(C)C(c2ccc(C(=O)O)cc2)=CC[C@]2(C)CN(C(=O)c3ccc(C(=O)O)cc3)CC=C12 [Example 13],> 3
15,CC1(C)C(c2ccc(C(=O)O)cc2)=CC[C@]2(C)CN(C(=O)c3ccccc3C(=O)O)CC=C12 [Example 14],> 3
16,CC(C)(C)OC(=O)N[C@H]1CC[C@H](C(=O)N2CC=C3C(C)(C)C(c4ccc(C(=O)O)cc4)=CC[C@]3(C)C2)CC1 [Example 15],> 3
17,CC(C)(C)OC(=O)N[C@H]1CC[C@@H](C(=O)N2CC=C3C(C)(C)C(c4ccc(C(=O)O)cc4)=CC[C@]3(C)C2)CC1 [Example 16],> 3
18,COc1cccc(C(=O)N2CC=C3C(C)(C)C(c4ccc(C(=O)O)cc4)=CC[C@]3(C)C2)c1 [Example 18],> 3
19,COc1ccc(C(=O)N2CC=C3C(C)(C)C(c4ccc(C(=O)O)cc4)=CC[C@]3(C)C2)cc1 [Example 19],> 3
20,CC1(C)C(c2ccc(C(=O)O)cc2)=CC[C@]2(C)CN(C(=O)c3ccccc3C(N)=O)CC=C12 [Example 20],> 3
21,CC1(C)C(c2ccc(C(=O)O)cc2)=CC[C@]2(C)CN(C(=O)c3cccc(C(N)=O)c3)CC=C12 [Example 21],> 3

row,Structure (SMILES),EC50 [µM]
1,CC1(C)C(c2ccc(C(=O)O)cc2)=CC[C@]2(C)CN(C(=O)c3ccc(C(N)=O)cc3)CC=C12 [Example 22],> 3
2,CN(C)c1ccccc1C(=O)N1CC=C2C(C)(C)C(c3ccc(C(=O)O)cc3)=CC[C@]2(C)C1 [Example 23],> 3
3,CN(C)c1cccc(C(=O)N2CC=C3C(C)(C)C(c4ccc(C(=O)O)cc4)=CC[C@]3(C)C2)c1 [Example 24],> 3
4,CN(C)c1ccc(C(=O)N2CC=C3C(C)(C)C(c4ccc(C(=O)O)cc4)=CC[C@]3(C)C2)cc1 [Example 25],> 3
5,CC1(C)C(c2ccc(C(=O)O)cc2)=CC[C@]2(C)CN(C(=O)c3cccc(N4CCOCC4)c3)CC=C12 [Example 27],> 3
6,CC1(C)C(c2ccc(C(=O)O)cc2)=CC[C@]2(C)CN(C(=O)c3ccc(N4CCOCC4)cc3)CC=C12 [Example 28],> 3
7,CN1CCN(c2cccc(C(=O)N3CC=C4C(C)(C)C(c5ccc(C(=O)O)cc5)=CC[C@]4(C)C3)c2)CC1 [Example 29],> 3
8,CC1(C)C(c2ccc(C(=O)O)cc2)=CC[C@]2(C)CN(C(=O)c3ccc(CN4CCS(=O)(=O)CC4)cc3)CC=C12 [Example 31],> 3
9,CC(C)(C)OC(=O)NCc1ccc(C(=O)N2CC=C3C(C)(C)C(c4ccc(C(=O)O)cc4)=CC[C@]3(C)C2)cc1 [Example 33],> 3
10,CN(C)CCC(=O)N1CC=C2C(C)(C)C(c3ccc(C(=O)O)cc3)=CC[C@]2(C)C1 [Example 34],> 3
11,CN(C)CC(=O)N1CC=C2C(C)(C)C(c3ccc(C(=O)O)cc3)=CC[C@]2(C)C1 [Example 35],> 3
12,CC1(C)C(c2ccc(C(=O)O)cc2)=CC[C@]2(C)CN(C(=O)CCN3CCS(=O)(=O)CC3)CC=C12 [Example 36],> 3
13,CC1(C)C(c2ccc(C(=O)O)cc2)=CC[C@]2(C)CN(C(=O)CN3CCS(=O)(=O)CC3)CC=C12 [Example 37],> 3
14,CC1(C)C(c2ccc(C(=O)O)cc2)=CC[C@]2(C)CN(C(=O)c3cccc(CN4CCS(=O)(=O)CC4)c3)CC=C12 [Example 38],> 3
15,CC1(C)C(c2ccc(C(=O)O)cc2)=CC[C@]2(C)CN(C(=O)c3ccc4[nH]cnc4c3)CC=C12 [Example 40],> 3
16,Cc1nc2cc(C(=O)N3CC=C4C(C)(C)C(c5ccc(C(=O)O)cc5)=CC[C@]4(C)C3)ccc2[nH]1 [Example 41],> 3
17,CC1(C)C(c2ccc(C(=O)O)cc2)=CC[C@]2(C)CN(C(=O)c3ccc4[nH]nnc4c3)CC=C12 [Example 42],> 3
18,CC1(C)C(c2ccc(C(=O)O)cc2)=CC[C@]2(C)CN(C(=O)c3ccc4[nH]ccc4c3)CC=C12 [Example 43],> 3
19,CC1(C)C(c2ccc(C(=O)O)cc2)=CC[C@]2(C)CN(C(=O)c3cncc(C(=O)O)c3)CC=C12 [Example 45],> 3
20,CC1(C)C(c2ccc(C(=O)O)cc2)=CC[C@]2(C)CN(C(=O)c3ccc(CN)cc3)CC=C12 [Example 53],> 3

# Same assay, conditions: Renilla, NL43, read-out: 10% FBS EC50, 10% FBS, numeric values
row,Structure (SMILES),EC50 [µM]
1,"CC(C)(C)OC(=O)N1CCN(c2ccccc2C(=O)N2CC=C3C(C)(C)C(c4ccc(C(=O)O)cc4)=CC[C@]3(C)C2)CC1 [Example 11, (S)-4-(2-(2-(4-(tert-butoxycarbonyl)piperazin-1-yl)benzoyl)-5,5,8a-trimethyl-1,2,3,5,8,8a-hexahydroisoquinolin-6-yl)benzoic acid]",0.46
2,COc1ccccc1C(=O)N1CC=C2C(C)(C)C(c3ccc(C(=O)O)cc3)=CC[C@]2(C)C1 [Example 17],1.69
3,CC1(C)C(c2ccc(C(=O)O)cc2)=CC[C@]2(C)CN(C(=O)c3ccccc3N3CCOCC3)CC=C12 [Example 26],0.63
4,CN1CCN(c2ccc(C(=O)N3CC=C4C(C)(C)C(c5ccc(C(=O)O)cc5)=CC[C@]4(C)C3)cc2)CC1 [Example 30],2.27
5,COc1ccc(S(=O)(=O)Cc2ccccc2)cc1C(=O)N1CC=C2C(C)(C)C(c3ccc(C(=O)O)cc3)=CC[C@]2(C)C1 [Example 32],0.66
6,CC1(C)C(c2ccc(C(=O)O)cc2)=CC[C@]2(C)CN(C(=O)c3ccc4cc[nH]c4c3)CC=C12 [Example 39],1.49
7,CC1(C)C(c2ccc(C(=O)O)cc2)=CC[C@]2(C)CN(C(=O)c3ccccc3N3CCN(CCN4CCS(=O)(=O)CC4)CC3)CC=C12 [Example 44],0.52
8,CC(C)(C)OC(=O)N1CCC(C(=O)N2CC=C3C(C)(C)C(c4ccc(C(=O)O)cc4)=CC[C@]3(C)C2)(c2ccccc2)CC1 [Example 46],0.25
9,CC(C)(C)OC(=O)N1CCC(Cc2ccccc2)(C(=O)N2CC=C3C(C)(C)C(c4ccc(C(=O)O)cc4)=CC[C@]3(C)C2)CC1 [Example 47],1.07
10,CC(C)(C)OC(=O)N1CCC(C)(C(=O)N2CC=C3C(C)(C)C(c4ccc(C(=O)O)cc4)=CC[C@]3(C)C2)CC1 [Example 48],0.27
11,CC(C)C1(C(=O)N2CC=C3C(C)(C)C(c4ccc(C(=O)O)cc4)=CC[C@]3(C)C2)CCN(C(=O)OC(C)(C)C)CC1 [Example 49],1.18
12,CC(C)(C)OC(=O)N1CCC(C(=O)N2CC=C3C(C)(C)C(c4ccc(C(=O)O)cc4)=CC[C@]3(C)C2)(C2CCCCC2)CC1 [Example 50],0.29
13,"CC1(C)C(c2ccc(C(=O)O)cc2)=CC[C@]2(C)CN(C(=O)c3ccccc3N3CCNCC3)CC=C12 [Example 51, (S)-4-(5,5,8a-trimethyl-2-(2-(piperazin-1-yl)benzoyl)-1,2,3,5,8,8a-hexahydroisoquinolin-6-yl)benzoic acid]",0.87
14,CC1(C)C(c2ccc(C(=O)O)cc2)=CC[C@]2(C)CN(C(=O)[C@H]3CC[C@H](N)CC3)CC=C12 [Example 52],3.62
15,CC1(C)C(c2ccc(C(=O)O)cc2)=CC[C@]2(C)CN(C(=O)C3(Cc4ccccc4)CCNCC3)CC=C12 [Example 55],3.04
